Experiments:
[1] = system: hydrogenosome membrane potential of T. vaginalis; assay: Hydrogenosomal membrane potential assay (JC-1); details: Figure 3; 4 h; 51 and 63 at 100 µM, MTZ 24 µM, CCCP 50 µM
[2] = system: Trypanosoma cruzi CL-B5 (DTU TcVI) epimastigotes; assay: CL-B5 lacZ epimastigote susceptibility assay (CPRG); format: cell-based; details: T. cruzi CL-B5 lacZ epimastigotes, 72 h, mean ± SD, n = 3
L929 cells = assay: Unspecific cytotoxicity assay on L929 fibroblasts (resazurin); format: cell-based; details: mean ± SD, n = 3; for CC50 at 72 h: mouse; for CC50: 72 h
J774 cells = assay: Unspecific cytotoxicity assay on J774 macrophages (resazurin); format: cell-based, mouse; details: mouse, mean ± SD, n = 3
Trichomonas vaginalis = assay: Trichomonacidal in vitro assay (resazurin); format: cell-based; details: isolate JH31A#4, 24 h, brackets: 95% confidence interval
[3] = system: Trypanosoma cruzi Y (DTU TcII) epimastigotes; assay: Y strain epimastigote susceptibility assay (resazurin); format: cell-based; details: Trypanosoma cruzi; T. cruzi Y strain epimastigotes, 48 h, mean ± SD, n = 3
Vero cells = assay: Unspecific cytotoxicity assay in Vero cells (resazurin); format: cell-based, African green monkey; details: for CC50 at 24 h: African green monkey; for CC50 at 24 h / CC50: Vero cells, brackets: 95% confidence interval, 24 h; for unspecific cytotoxicity towards Vero cells (in words): highest concentration evaluated (300 µM)
[4] = Vero CCL-81 cells (kidney epithelial cells)

Structure (SMILES)	IC50 ([2]; Trypanosoma cruzi) [µM]	CC50 at 72 h (L929 cells) [µM]	IC50 (Trichomonas vaginalis; Trichomonas vaginalis, 24 h) [µM]	also measured
N#CC(C#N)=NNc1cccc(Cl)c1 [CCCP, m-chlorocarbonylcyanide phenylhydrazone, reference compound]				JC-1 fluorescence distribution in trophozoites (fluorescence microscopy) [1]: provokes a disturbance in the hydrogenosome membrane potential
COc1ccc(NC(=S)NN)cc1 [Compound 23]	53.5 ± 13	> 256	256	CC50 at 48 h (J774 cells): > 256 µM; IC50 [3]: 59.9 ± 10.4 µM
NNC(=S)Nc1ccc(F)cc1 [Compound 24]	58.8 ± 8.77	> 256	200	CC50 at 48 h (J774 cells): > 256 µM; IC50 [3]: 97.3 ± 3.45 µM
NNC(=S)Nc1ccc(Cl)cc1 [Compound 25]	44.2 ± 13.6	67.7 ± 3.16	49.2	CC50 at 24 h (Vero cells; [4]): > 300 µM
NNC(=S)Nc1ccc(I)cc1 [Compound 27]	49.8 ± 14.2	51 ± 8.88	75.7	
NNC(=S)Nc1ccccc1[N+](=O)[O-] [Compound 28]	44.1 ± 5.38	210 ± 15.3	> 300	
NNC(=S)Nc1cccc([N+](=O)[O-])c1 [Compound 29]	79.9 ± 15.4	206 ± 7.25	19.1	CC50 at 24 h (Vero cells; [4]): > 300 µM
NNC(=S)Nc1ccc([N+](=O)[O-])cc1 [Compound 30]	72.5 ± 1.23	23.6 ± 2.84	106	
Oc1ccc(/C=N/NC(=S)Nc2ccccc2)cc1 [Compound 36]	70.9 ± 11	46.29 ± 0.15	74	
COc1ccc(/C=N/NC(=S)Nc2ccccc2)cc1 [Compound 37]		> 256	167	CC50 at 48 h (J774 cells): > 256 µM; IC50 [3]: 85.1 ± 17.2 µM
Oc1ccc(/C=N/NC(=S)Nc2ccccc2)cc1O [Compound 38]	15.3 ± 2.22	45.2 ± 0.58	88.6	
Cc1ccc(NC(=S)N/N=C/c2ccc(O)cc2)cc1 [Compound 39]	39.6 ± 7.08	61 ± 3.72	66.1	
COc1ccc(/C=N/NC(=S)Nc2ccc(C)cc2)cc1 [Compound 40]	> 256	> 256	226	
Cc1ccc(NC(=S)N/N=C/c2ccc(O)c(O)c2)cc1 [Compound 41]	119 ± 7.68	20 ± 1.87	80.6	
COc1ccc(NC(=S)N/N=C/c2ccc(O)cc2)cc1 [Compound 42]	49.2 ± 9.97	43.3 ± 16.6	64.8	
COc1ccc(/C=N/NC(=S)Nc2ccc(F)cc2)cc1 [Compound 44]	> 256	> 256	> 300	
Oc1ccc(/C=N/NC(=S)Nc2ccc(F)cc2)cc1O [Compound 45]	97.4 ± 5.33	30.5 ± 3.93	226	
COc1ccc(/C=N/NC(=S)Nc2ccc(Cl)cc2)cc1 [Compound 46]	30.5 ± 4.1	49.7 ± 3.76	32.3	CC50 at 24 h (Vero cells; [4]): > 300 µM
Oc1ccc(/C=N/NC(=S)Nc2ccc(Br)cc2)cc1 [Compound 47]	42.8 ± 12	67 ± 5.43	52.4	
COc1ccc(/C=N/NC(=S)Nc2ccc(Br)cc2)cc1 [Compound 48]	> 256	> 256	55.1	

Structure (SMILES)	IC50 ([2]; Trypanosoma cruzi) [µM]	CC50 at 72 h (L929 cells) [µM]	IC50 (Trichomonas vaginalis; Trichomonas vaginalis, 24 h) [µM]	also measured
Oc1ccc(/C=N/NC(=S)Nc2ccc(Br)cc2)cc1O [Compound 49]	104 ± 15.7	16.7 ± 0.7	11.1	CC50 at 24 h (Vero cells; [4]): ≥ 275 µM; CC50 (Vero cells): > 300 µM; unspecific cytotoxicity towards Vero cells (in words) (Vero cells): did not exhibit unspecific cytotoxicity; IC50 (Trichomonas vaginalis): 16.4 µM
Oc1ccc(/C=N/NC(=S)Nc2ccc(I)cc2)cc1 [Compound 50]	22.8 ± 1.61	41.4 ± 8.36	42.2	CC50 at 24 h (Vero cells; [4]): > 300 µM
COc1ccc(/C=N/NC(=S)Nc2ccc(I)cc2)cc1 [Compound 51]	> 256	> 256	14.8	CC50 at 24 h (Vero cells; [4]): ≥ 275 µM; CC50 (Vero cells): > 300 µM; unspecific cytotoxicity towards Vero cells (in words) (Vero cells): did not exhibit unspecific cytotoxicity; JC-1 fluorescence distribution in trophozoites (fluorescence microscopy) [1]: fluorescence restricted to certain regions of the parasite; IC50 (Trichomonas vaginalis): 14.8 µM
Oc1ccc(/C=N/NC(=S)Nc2ccc(I)cc2)cc1O [Compound 52]	69.4 ± 4.73	20.8 ± 7.92	24.9	CC50 at 24 h (Vero cells; [4]): > 300 µM
O=[N+]([O-])c1ccccc1NC(=S)N/N=C/c1ccc(O)cc1 [Compound 53]	21.8 ± 2.98	34.9 ± 8.65	92.8	
COc1ccc(/C=N/NC(=S)Nc2ccccc2[N+](=O)[O-])cc1 [Compound 54]	210 ± 14.5	> 256	34.2	CC50 at 24 h (Vero cells; [4]): > 300 µM
O=[N+]([O-])c1ccccc1NC(=S)N/N=C/c1ccc(O)c(O)c1 [Compound 55]	42 ± 9.06	21.4 ± 4.12	133	
O=[N+]([O-])c1cccc(NC(=S)N/N=C/c2ccc(O)cc2)c1 [Compound 56]	36.9 ± 3.84	28.8 ± 3.25	24.3	CC50 at 24 h (Vero cells; [4]): 169 µM
O=[N+]([O-])c1cccc(NC(=S)N/N=C/c2ccc(O)c(O)c2)c1 [Compound 58]	33.8 ± 7.59	12 ± 1.42	73.4	
O=[N+]([O-])c1ccc(NC(=S)N/N=C/c2ccc(O)cc2)cc1 [Compound 59]	76.4 ± 9.91	29.4 ± 2.52	36	CC50 at 24 h (Vero cells; [4]): 254 µM
COc1ccc(/C=N/NC(=S)Nc2ccc([N+](=O)[O-])cc2)cc1 [Compound 60]	> 256	> 256	155	
O=[N+]([O-])c1ccc(NC(=S)N/N=C/c2ccc(O)c(O)c2)cc1 [Compound 61]	111 ± 14.8	5.37 ± 0.3	128	
O=[N+]([O-])c1ccc(/C=N/NC(=S)Nc2ccc([N+](=O)[O-])cc2)cc1 [Compound 62]	> 256	53.5 ± 4.82	152	
Oc1ccc(/C=N/NC(=S)Nc2cccc3ccccc23)cc1 [Compound 63]				IC50 [2]: 53.6 ± 11.3 µM; CC50 (L929 cells): 31.1 ± 9.21 µM; CC50 (Vero cells): 275 µM; JC-1 fluorescence distribution in trophozoites (fluorescence microscopy) [1]: fluorescence restricted to certain regions of the parasite; IC50 (Trichomonas vaginalis): 14.9 µM
COc1ccc(/C=N/NC(=S)Nc2cccc3ccccc23)cc1 [Compound 64]				IC50 [2]: > 256 µM; CC50 (L929 cells): > 256 µM; CC50 (Vero cells): > 300 µM; IC50 (Trichomonas vaginalis): 30.5 µM
Oc1ccc(/C=N/NC(=S)Nc2cccc3ccccc23)cc1O [Compound 65]				IC50 [2]: 70.2 ± 6.99 µM; CC50 (L929 cells): 28.8 ± 7.77 µM; CC50 (Vero cells): 175 µM; IC50 (Trichomonas vaginalis): 20.1 µM
Oc1ccc(/C=N/NC(=[Se])Nc2ccc(Br)cc2)cc1O [Compound 74]			11.1	CC50 at 24 h (Vero cells): 114 µM
COc1ccc(/C=N/NC(=[Se])Nc2ccc(I)cc2)cc1 [Compound 75]			11	unspecific cytotoxicity towards Vero cells (in words) (Vero cells): did not present toxic effects at the maximum concentration tested
Cc1ncc([N+](=O)[O-])n1CCO [Metronidazole, metronidazole, reference compound]			2.68	CC50 at 24 h (Vero cells; [4]): > 300 µM; JC-1 fluorescence distribution in trophozoites (fluorescence microscopy) [1]: fluorescence restricted to certain regions of the parasite

— article PMC8881069, “Thio- and selenosemicarbazones as antiprotozoal agents against Trypanosoma cruzi and Trichomonas vaginalis” (Journal of Enzyme Inhibition and Medicinal Chemistry, 2022)
